{"source": "patent US9861712B2", "about": "“Preparation of extremely small and uniform sized, iron oxide-based paramagnetic or pseudo-paramagnetic nanoparticles and MRI T1 contrast agents using the same” (Hanwha Chemical Corporation, priority 2010, dated 2018)", "system": "rats", "assay": "In vivo MR imaging (dynamic time-resolved MR angiography, 3d-FLASH) of blood vessels", "experimental": "Dynamic time-resolved MR angiography and 3d-FLASH images of rats were acquired using a wrist coil on a 3 T MRI scanner before and after the injection of 3 nm iron oxide nanoparticles capped by PO-PEG, prepared according to example 13 (dose: 2.5 mg Fe/kg). The pre-contrast images were subtracted from post-contrast images, and the resulting images were reconstructed using maximum intensity projection (MIP) protocol with OsriX (Version 3.8.1; 32 bit; OsiriX foundation, Geneva). Dynamic time-resolved MR angiography was obtained with an interpolated temporal resolution of 1.25 second and the following parameters: flip angle=20, ETL=1, TR=3.1 ms, TE=1.13 ms, field of view FOV=75×140 mm^2, matrix=256×106, slice thickness/gap=2.5 mm/0 mm, and NEX=1. The imaging parameters of 3d-FLASH are as follows: flip angle=25, ETL=1, TR=25 ms, TE=5.1 ms, field of view FOV=110×65 mm^2, matrix=256×169, slice thickness/gap=1.0 mm/0 mm, and NEX=2.\nMR imaging using the 3 nm nanoparticles capped by glucose 6-phosphate was performed according to example 16."}
{"smiles": "O=C([O-])CN1CCN(CC(=O)[O-])CCN([C@H](CO)[C@H](O)CO)CCN(CC(=O)[O-])CC1.[Gd+3]", "note": "(racemic) [Gadovist]", "values": [{"measurement": "contrast effect of in vivo MR image immediately after the injection", "setting": "immediately after the injection", "value": "high contrast effect"}, {"measurement": "time in which the bright signal vanished", "setting": "in vivo MR image after injection", "value": 2, "unit": "min"}, {"measurement": "blood half-life", "setting": "in words", "value": "short blood half-life"}]}
